According to patent publication US20120003298A1, “METHODS FOR INDUCING AN IMMUNE RESPONSE” (priority 2010, published 2012):

Legend:
PBMCs = assay: IL-6 and TNF-alpha secretion in PBMC model (Model 2), ELISA; format: cell-based, human; conditions: three donors
human PBMCs = assay: IL-6 secretion in human PBMCs, two batches of Compound A and SC12 (Example 4); format: cell-based; conditions: 5 months storage in DMSO at 4° C.
Description: PBMCs were purified from two donors and plated into 96 well plates at 2×10^5 cells/well in RPMI media including human 2% heat inactivated AB serum, glutamine, Pen-strep and β-mercaptoethanol. The cells were treated with TLR7 agonists for 24 h in 4 doses. The conditioned media was removed for ELISA analyses for IL-6, and the EC50 value determined for each compound and each batch.
All compounds were tested in four concentrations (10-1-0.1-0.01 micromolar).
Concentrations of IL-6 were determined by ELISA from R&D Systems using the Microsoft Excel software. The results were analyzed in Graph Pad Prism in order to prepare dose-response curves, and for determination of EC50 values.

[1] = system: myeloid CD11c+/CD123− DCs; assay: FACS, myeloid DC activation in whole blood; format: cell-based, human; conditions: 24 hours; 0.1 and 0.5 uM
Description: The FACS analysis for donor 1 and donor 2 was made on another day than donor 3. The compound concentrations were as follows:
B cell activation: 2 and 10 uM mDC/pDC: 0.1 and 0.5 uM
The FACS analysis was used to identify whether the test compounds could induce activation of B cells, and two different subsets of dendritic cells, namely the myeloid CD11c+/CD123− DCs and the plasmacytoid CD11c−/CD123+DCs. The following markers were studied to identify the activation status of the different subsets:
The FACS staining was performed according to the manufacturer's instructions. Lysis of red blood cells was performed before FACS staining in order to minimize auto-florescence. To include as many B cells and DCs in the study as possible the FACS analyses were performed on 500,000 cells in total for each staining. A P1 gate was set only to include relevant cells on FSC vs. SSC (see FIGS. 12-15). The results of the individual analysis were present as Mean Fluorescence Intensity (MFI) values, for certain activation marker in a given gate setting, represent the actual cell subset. The isotype background values have been used to set the gates so that a maximum at 2% of unspecific stained cells could be found in the positive gates.
The analysis of myeloid DCs was based on HLA-DR+/CD11c+/CD123-cells, thus all analyzed cells was included in the HLA-DR+(P3) gate and CD11c+/CD123− (Q4) gate (see gates in FIGS. 13-15).

OVA specific Ig = assay: Adjuvanticity with ovalbumin (OVA), subcutaneous immunization; format: in vivo, mouse
Description: For the adjuvanticity experiments, mice were subcutaneously immunized with 20 pg ovalbumin (OVA) with 10 nmol or 100 nmol (TLR7 agonist equivalent dose) per mouse in various TLR7 conjugates on days 0 and 7. Sera were collected on days 0, 7, 14, 21, 28, 42, and 56. Mice immunized with saline or OVA mixed with vehicle served as controls. Mice were sacrificed on day 56.
Immunization occurs on day 0 and 7. Serum collection day is on 0, 7, 14, 21, 28, 42 and 56 days.

[2] = system: Salmonella typhimurium TA1535, TA1537, TA98, TA100; assay: Bacterial mutation assay, Salmonella typhimurium; format: cell-based
Description: (§1) The five tester strains TA1535, TA1537, TA98, TA100 and WP2 uvrA were used. Experiments were performed both in the absence and presence of metabolic activation, using liver S9 fraction from rats pre-treated with phenobarbitone and betanaphthoflavone. SC12 was used as a solution in dimethylsulfoxide (DMSO).

[3] = system: Escherichia coli WP2 uvrA; assay: Bacterial mutation assay, Escherichia coli; format: cell-based
Description: as §1

[4] = Single dose intravenous toxicity study in rats; format: in vivo, Sprague Dawley rat
Description: An additional group, similarly composed, received the vehicle alone and acted as a control. […] Clinical signs were limited to piloerection and reduced activity, observed on the day of dosing.
A second group was dosed at 100 mg/kg. […] A third group was then dosed at 85 mg/kg. […] A fourth group was finally dosed at 90 mg/kg. […] Piloerection was observed from Day 2 up to Day 4 of the study.
In the main phase, 5 male and 5 female animals were dosed at 90 mg/kg and observed for a period of 14 days. A second group, similarly constituted, received the vehicle alone and acted as control. […] In addition, one male and one female dosed at 90 mg/kg were found dead on Day 2 of the study. Twitches, ataxia, piloerection, reduced activity and hunched posture were the major signs observed in animals before death. […] Piloerection was observed up to Day 3 of the study. A second group, similarly composed, was dosed at 80 mg/kg.
Recovery occurred by Day 15 and the body weight changes were within the expected range for this species and age of animals at the end of the study. […] Surviving animals were killed at the end of the observation period with carbon dioxide narcosis. All animals, including the early decedents, were subjected to necropsy examination. […] Therefore, the maximum tolerated dose in this study was considered to be 80 mg/kg.

CYP2C9 = target: T1, CYP2C9 (Homo sapiens, UniProt P11712); assay: Fluorescent High Throughput P450 assay, CYP2C9; format: biochemical
T1 construct: purchased Gentest
Description: (§2) Inhibition of the P450 isoforms was measured in specific assays using specific substrates that become fluorescent upon CYP metabolism. Compounds, dissolved in ACN (acetonitrile) (CYP2E1, CYP2C8, CYP2B6, CYP3A5) or DMSO (all remaining isoforms), were tested in duplicate (n=2) in concentration-response curves (eight concentrations) in a 96-well plate containing incubation/NADPH regenerating buffer. Specific isoenzymes and substrates were added and incubated at 37° C. Reactions were terminated at different times, depending on the assays, and plates read on a Fluoroskan Ascent at the appropriate emission/excitation wavelengths. Concentration-response curves performed in duplicate for known inhibitors for each isoenzyme were tested in every assay as positive control.

CYP3A5 = target: T2, CYP3A5 (Homo sapiens, UniProt P20815); assay: Fluorescent High Throughput P450 assay, CYP3A5; format: biochemical
T2 construct: purchased Gentest
Description: as §2

MB49 cells = assay: Mouse bladder cancer model, intravesical treatment (Experiment 24); format: in vivo
Description: A set of experiments was conducted with SC12 in various solutions, in a mouse bladder cancer model.
7-9 week old C57BU6 mice were implanted with 1×10^6 MB49 cells after 0.1% poly L lysine treatment on day 0. […] On day 11, mice were sacrificed and organs were harvested.

[5] = system: Cutaneous Squamous Cell Carcinoma (SCC) cell lines SCL-I, SCL-II, SCC-12, SCC-13
Description: SCC cells are grown under standard conditions (10% FBS).
Time and dose dependency of effects on total cell numbers have been investigated by real-time cell analysis, which is based on continuous monitoring of electric conductance in microtiter wells (E-plates, Roche), which corresponds to the cell numbers. […] For these assays 4 cell lines may be used to obtain a representative overview on the effects on SCC cells.

[6] = Intravenous pharmacokinetics in the mouse
Description: An IV bolus was administered into the caudal vein at a dose of 1 mg/kg in 5 ml. The compound weight was 2.08/10.04 ml. 24 mice were studied. Sampling was obtained by exsanguination under anesthesia, at 5, 15, 30, 60, 240, and 480 minutes, and at 24 hours. […] Animals were sacrificed using ethyl ether at the conclusion of the experiment.
Sample preparation: In a Sirocco filter plate, 100 microliters of plasma were added to 300 microliters of ACN/MeOH spiked with 5 microliters of IS (IV298 10 micrograms per ml) plus 10 microliters of 5% H3PO4. The plate was shaken for 10 minutes at 80 rpm and then filtered under vacuum for 5 minutes.
Analytical method: LC/MS/MS: Premiere XE, Eluent: water (A) MeOH(B) plus 0.1% HCOOH gradient. 15% B to 100% B from 0.1 to 0.5, then isocratic 100% B up to 1.5 minutes, flow 0.8 ml/min; Column Acquity HPLC BEH C18 1.7 microm 2.1×50 mm, injection volume of 5 microliters in a T column at 50° C. ESI positive, MRM, Extractor 5V; Capillary 3.5 kV; T source 115° C.; T desolv. 450° C.
Data analysis: Non-compartmental analysis WinNonlin 5.1; linear trapezoidal, uniform weight.

[7] = Stability on storage by HPLC (solid or chloroform solution; temperature, light); conditions: for HPLC % at RRT = 1: SC12
Description: At this point, a stability study was conducted on batch CH730/16/8g.
The samples were analyzed at t=0 and after 20 days.

[8] = 50.0-5000 micrograms/plate, absence or presence of S9
[9] = up to 5000 micrograms/plate, absence or presence of S9 metabolism

T1 sequence (P11712 whole entry): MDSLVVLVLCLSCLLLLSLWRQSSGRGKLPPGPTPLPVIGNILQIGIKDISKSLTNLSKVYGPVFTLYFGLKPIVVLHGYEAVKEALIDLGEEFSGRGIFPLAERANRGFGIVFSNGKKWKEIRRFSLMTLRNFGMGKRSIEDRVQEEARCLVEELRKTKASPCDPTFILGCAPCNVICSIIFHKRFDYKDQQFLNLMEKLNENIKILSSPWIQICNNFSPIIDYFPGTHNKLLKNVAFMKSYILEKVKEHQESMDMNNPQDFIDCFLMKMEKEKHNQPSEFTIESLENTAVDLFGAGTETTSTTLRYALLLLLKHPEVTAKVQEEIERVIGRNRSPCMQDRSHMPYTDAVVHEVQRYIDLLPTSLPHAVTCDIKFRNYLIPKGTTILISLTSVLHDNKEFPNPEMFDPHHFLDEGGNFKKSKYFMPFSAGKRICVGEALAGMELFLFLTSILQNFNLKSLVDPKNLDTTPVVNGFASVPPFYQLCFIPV
T2 sequence (P20815 whole entry): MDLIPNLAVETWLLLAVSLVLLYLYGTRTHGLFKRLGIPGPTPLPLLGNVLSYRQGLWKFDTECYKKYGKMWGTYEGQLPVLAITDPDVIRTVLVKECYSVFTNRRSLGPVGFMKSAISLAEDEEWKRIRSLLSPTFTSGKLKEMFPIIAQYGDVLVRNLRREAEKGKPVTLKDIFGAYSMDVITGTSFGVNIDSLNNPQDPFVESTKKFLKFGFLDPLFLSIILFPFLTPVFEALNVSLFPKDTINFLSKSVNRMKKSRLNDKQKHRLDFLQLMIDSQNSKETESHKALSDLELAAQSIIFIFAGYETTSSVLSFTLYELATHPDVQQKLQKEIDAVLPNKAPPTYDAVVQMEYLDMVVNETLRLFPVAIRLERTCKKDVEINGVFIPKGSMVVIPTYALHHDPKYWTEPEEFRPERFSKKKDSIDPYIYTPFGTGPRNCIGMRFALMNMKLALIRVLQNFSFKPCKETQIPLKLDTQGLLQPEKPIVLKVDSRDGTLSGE

CCCCCCCCCCCC(=O)OCC(COP(=O)(O)OCCNC(=O)c1ccc(Cn2c(=O)[nH]c3c(N)nc(OCCOC)nc32)cc1)OC(=O)CCCCCCCCCCC (stereo not shown) [SC12]
potency for TNF-alpha secretion (PBMCs): on average slightly more potent than compound A | activity after storage (human PBMCs): have not lost activity | CCR7 expression in mDCs (MFI, words) [1]: less potent stimulator of CCR7 expression | CD80 expression in mDCs (MFI, words) [1]: noteworthy CD80 expression in all three donors | CD86 expression in mDCs (MFI, words) [1]: weak CD86 expression in donor 2 and 3, but not in donor 1 | adjuvant potency, Th1 immune response (OVA specific Ig; 100 nmoles SC12 equivalent to 10 nmoles compound A): 10 times less potent than compound A or compound A* | antigen specific IgG2a (OVA specific Ig; OVA 20 μg with 10 or 100 nmoles, days 0 and 7): significantly higher than the immunization with OVA alone | OVA-specific IgG1 (OVA specific Ig; mouse, in vivo): not found to induce high levels of OVA-specific IgG1 | toxicity to tester strains [2, 8]: No toxicity was observed with any tester strain at any dose level | reverse mutation [2, 9]: does not induce reverse mutation | toxicity to tester strains [3, 8]: No toxicity was observed with any tester strain at any dose level | reverse mutation [3, 9]: does not induce reverse mutation | mortality and clinical signs ([4]; 76 mg/kg, preliminary phase): No mortality occurred | mortality and clinical signs ([4]; 80 mg/kg, main phase): No mortality occurred and no clinical signs were recorded | mortality and clinical signs ([4]; 85 mg/kg, preliminary phase): Piloerection was observed on the day of dosing | necropsy examination ([4]; 90 mg/kg and 80 mg/kg): No abnormalities were observed at necropsy examination | mortality and clinical signs ([4]; 90 mg/kg, main phase, 5 male and 5 female): Three males treated at 90 mg/kg died immediately after dosing, while two females died at 2 hours post-dose | mortality and clinical signs ([4]; 90 mg/kg, preliminary phase): No mortality occurred | mortality and clinical signs ([4]; 100 mg/kg, preliminary phase): Both animals died at dosing | body weight ([4]; surviving animals at 90 mg/kg and animals at 80 mg/kg): slight to moderate body weight loss on Day 2 | inhibition of CYP2C9 (CYP2C9): weak inhibition | inhibition of CYP3A5 (CYP3A5): moderate inhibition | serum IL-6 and TNF-alpha (MB49 cells; Experiment 1, in Phosal 50, 50 microliters, 20 minutes, 2 h and 24 h): under the detection levels | bladder histology, cell infiltration (MB49 cells; Experiment 4, SC12 0.38%, MB49 implanted bladder, day 11): more monocyte infiltration | cell numbers, real-time cell analysis ([5]; FIG. 11): reduced cell numbers | morphology and proliferation ([5]; day 3, 120 microM): cell detachment, morphological changes and inhibition of proliferation | adverse behavioral effects ([6]; IV 1 mg/kg): No adverse behavioral effects were noted | AUC INF obs ([6]; IV bolus 1 mg/kg, plasma): 12878 ng·min/mL | AUClast ([6]; IV bolus 1 mg/kg, plasma): 11744 ng·min/mL | HPLC % at RRT = 1 ([7]; Solid, RT and light, t = 20 days): RRT = 1: 87.8% | HPLC % at RRT = 1 ([7]; Solid, external T and light, t = 20 days): RRT = 1: 84.0% | HPLC % at RRT = 1 ([7]; Solution in CHCl3, RT and light, t = 0): RRT = 1: 90.3% | HPLC % at RRT = 1 ([7]; Solution in CHCl3, RT and light, t = 20 days): RRT = 1: 88.0% | stability compared with compound A ([7]; storage 20 days): more stable than compound A
